In US9125937B2, “Labelled analogues of halobenzamides as multimodal radiopharmaceuticals and their precursors” (INSTITUT NATIONAL DE LA SANTE ET DE LA RECHERCHE MEDICALE …, priority 2008, dated 2015):

How the values were obtained:
[1] = test system: B16F10 and B16F0 murine melanoma tumour grafts; test: PET imaging of melanoma-bearing mice; type: in vivo, C57BL6 mice
Method: Imaging Protocol. Three sets of mice were prepared for PET imaging as described in FIG. 3 in annex: • (Set 1) Four C57BL6 mice bearing both B16F10 and B16F0 murine melanoma tumour grafts on the flanks were anaesthetized with isoflurane and injected with [^18F]10 (200 μCi). Two were imaged immediately during the first hour after injection, allowed to recover from anaesthesia, anaesthetized again at two hours post injection and imaged between two and two-and-a-half hour after injection, allowed to recover from anaesthesia, anaesthetized again at four hours post injection and imaged between four and four-and-a-half hour after injection, then sacrificed and their organs weighed and counted. Two other mice were allowed to recover from anaesthesia, anaesthetized at two hours post injection and imaged between two and two-and-a-half hour after injection, allowed to recover from anaesthesia, anaesthetized again at four hours post injection and imaged between four and four-and-a-half hour after injection, then sacrificed and their organs weighed and counted. • (Set 2) Two C57BL6 mice bearing both B16F10 and B16F0 murine melanoma tumour grafts on the shoulders (so as to avoid contaminating signals originating from with digestive and urinary tracts) were injected with [^18F]10 (200 μCi), imaged under isoflurane anesthesia continuously during two hours, then sacrificed and their organs weighed and counted. • (Set 3) One C57BL6 mouse bearing both B16F10 and B16F0 murine melanoma tumour grafts on the shoulders (so as to avoid contaminating signals originating from with digestive and urinary tracts) was injected with [^18F]10 (600 μCi), allowed to recover, anaesthetized with isoflurane six hours post injection, imaged during 30 minutes between six and six-and-a-half hours post injection.
PET Imaging. […] All values of radioactivity concentrations were normalized for radioactivity decay, as well as by the injected dose of radiotracer, and expressed as percentage of the injected dose per volume of tissue (% ID/cc). […]

[2] = test system: B16F10 and B16F0 murine melanoma tumour grafts; test: Ex vivo biodistribution by organ counting after PET imaging; type: in vivo; settings: two-and-a-half and four-and-a-half hours after i.v. injection, FIG. 4
Method: Imaging Protocol. Three sets of mice were prepared for PET imaging as described in FIG. 3 in annex: • (Set 1) Four C57BL6 mice bearing both B16F10 and B16F0 murine melanoma tumour grafts on the flanks were anaesthetized with isoflurane and injected with [^18F]10 (200 μCi). Two were imaged immediately during the first hour after injection, allowed to recover from anaesthesia, anaesthetized again at two hours post injection and imaged between two and two-and-a-half hour after injection, allowed to recover from anaesthesia, anaesthetized again at four hours post injection and imaged between four and four-and-a-half hour after injection, then sacrificed and their organs weighed and counted. […]
Biodistribution. [^18F]10 biodistribution was analysed for the mice of set 1 (n=4) four-and-a-half hours after injection, and for the mice of set 2 (n=2) two-and-a-half hours after injection. Animals were sacrificed by lethal injection of pentobarbital and organs were collected, weighed and radioactivity of each sample was measured on a Cobra gamma counter (Packard). […]

## CCN(CCNC(=O)c1cnc2cc(I)ccc2n1)CCOc1cccnc1[18F] [[^18F]10, [^18F]N-[2-[N-ethyl-N-[2-(2-fluoropyridin-3-yloxy)ethyl]amino]ethyl]-6-iodoquinoxaline-2-carboxamide]
[1]; 2 and 4 hours post injection, same animal, FIGS. 5 and 6
  Uptake (% injected dose per volume tumour graft) in B16F0 relative to B16F10 tumour grafts: more than two-to-three times higher
[1]; dynamic PET, FIG. 7, Set 2
  Uptake in B16F0 with respect to B16F10: two-to-three times higher
[1]; two to two-and-a-half hours and six to six-and-a-half hours post injection
  Contrast between melanoma grafts and surrounding tissue on PET images: evident contrast
[2]
  Biodistribution in selected organs (% ID/CC), tumour targeting: specifically target melanoma tumours in vivo
